Results: patent US8003312B2, “Multiplex cellular assays using detectable cell barcodes” (The Board of Trustees of the Leland Stanford Junior …, priority 2007, dated 2011)

Key:
Assay type in all cases: cell-based, human
ERK phosphorylation = test: 96-well FCB drug screen in Jurkat cells: T-cell receptor-mediated ERK phosphorylation; conditions: 20 μM, 45 min before stimulation with anti-CD3, anti-CD28 and IFN-γ for 5 min
Description: (§1) FIG. 5. Use of FCB in drug screening platforms. […] (a) Layout of screening experiment. Jurkat cells were treated with 70 known small-molecule kinase or phosphatase inhibitors (20 μM), Jak inhibitor I (2 μM) or U0126 (20 μM) for 45 min before stimulation with 5 μg/ml anti-CD3 and anti-CD28 and 10 ng/ml IFN-γ for 5 min. (b) FCB setup for barcoding of 96-well plate. After fixation, cells were barcoded with Alexa 700-NHS (0, 0.06, 0.25 or 1 μg/ml) to delineate the four quadrants of the 96-well plate. Each quadrant was subdivided into four rows labeled with Pacific Blue-NHS (0, 0.04, 0.2 or 1 μg/ml) and six columns labeled with Alexa 488-NHS (0, 0.02, 0.06, 0.18, 0.5 or 1.5 μg/ml). Shown are pseudocolor FACS plots of the actual gating scheme used to deconvolute the samples in quadrant 4, row D (bottom right six samples in the plate). […] Wells with black triangles were excluded from the analysis due to high fluorescence of the drug in the phospho-protein fluorescence channels. Colored squares are drawn over wells analyzed in d. […]
(§2) Because most cell-based high-throughput screens use 96-well microtiter plates, we next addressed the question whether the technique could be adapted to a 96-well plate. […] We also calculated the Z′ factor from these samples, and it was 0.71 for Stat1 and 0.69 for ERK, indicating robust assay performance. […]

[1] = tested on: Stat1 and ERK phosphorylation; test: Titration of four screening hits in Jurkat cells using six-sample FCB (pStat1, pERK); conditions: 30 min before IFN-γ (10 ng/ml) and anti-CD3/28 (5 μg/ml each)
Description: FIG. 8. Detailed titration of four hits from Jurkat drug screening experiment (FIG. 5). a) Four compounds: Bay11-7082, Indirubin-3-monoxime, PP2, and ZM449829 were added to Jurkat cells at different concentrations for 30 min prior to stimulation with IFN-γ (10 ng/ml) and anti-CD3/28 (5 μg/ml each). The cells were fixed and permeabilized, then stained with pStat1 Ax647 and pERK Ax488 antibodies. Percent inhibition of phosphorylation was plotted against concentration of drugs and fitted with a logistic regression curve to obtain IC50 values. Numbers in the top right of each plot are the IC50 value in μM units. b) Lysates were prepared from the same cells used for phospho flow and analyzed by western blot with pStat1 and pERK antibodies. Drugs were applied at 20 μM (same concentration as initial screen) for western blot analysis.
Because a few of these hits were unexpected, we performed titration experiments using six-sample FCB on four of the compounds to validate the results (FIG. 8).
We calculated fold change of phosphorylation upon stimulation by dividing median fluorescence intensity (MFI) of stimulated samples by the MFI of unstimulated samples: FC=MFIstim/MFIunstim. For heat map analysis, FC was converted to log2 values to enhance visualization and so that samples showing no change have a value of zero. To measure drug activity, we calculated percent inhibition as follows: Percent Inhibition=1−((MFItreated ? MFIunstim)/(MFIstim ? MFIunstim)), where “treated” denotes drug treated (and stimulated) samples, “stim” denotes control stimulated (non drug treated) samples, and “unstim” denotes control unstimulated (non drug treated) samples. We calculated Z′-factor from control stimulated and unstimulated samples by the following: Z′-factor=1 ? ((3[…]SDstim 3[…]SDunstim)/(meanstim ? meanunstim)), where “SD” denotes standard deviation of the mean, and “mean” denotes the mean of either stimulated or unstimulated MFI values. Z′-factor is an indication of the robustness and suitability of an assay for high throughput screening, with values from 0.5 to 1 indicating an excellent assay, 0 to 0.5 indicating a usable assay, and less than 0 indicating the assay has too much noise or inadequate dynamic range.

Stat1 phosphorylation = test: 96-well FCB drug screen in Jurkat cells: Stat1 phosphorylation induced by IFN-γ; conditions: 20 μM, 45 min before stimulation with anti-CD3, anti-CD28 and IFN-γ for 5 min
Description: as §1, §2

Cc1ccc(S(=O)(=O)/C=C/C#N)cc1 [Bay11-7082]
inhibition of ERK phosphorylation (ERK phosphorylation): 50%
selectivity between ERK and Stat1 phosphorylation [1]: little selectivity
inhibition of Stat1 phosphorylation (Stat1 phosphorylation): inhibited Stat1 phosphorylation potently
